Here are results for 29 compounds from US11667649B2, “Heteroaromatic macrocyclic ether chemotherapeutic agents” (Nuvalent, Inc., priority 2020, dated 2023).

Read-outs that look alike come from different tables or passages of the source.

The conditions of data set [1]: cc_pd bond, 12-membered ring.
Data set [2] concerns the target T1, ROS1-G2032R kinase domain (Homo sapiens, UniProt P08922, G2032R).
T1 construct: TRKA-wt (1 nM, BPS Bio, 40280) kinase domains in buffer; purchased SignalChem R14-12BG
Nature of the data set: Biochemical kinase assay, ROS1-G2032R. The conditions noted are these: 2 mM ATP substrate solution, read-out: Ki^app ROS1-G2032R. In outline: (§1)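 Compound in DMSO added first, then substrate solution (ATP 2 mM; AQT0101 or AQT0104, 26 μM; pH 7.5 HEPES, 10 mM MgCl2), then kinase solution with enzyme at 0.5–3 nM depending on construct. Kinetic read every 2 min for 120 min at 30° C; Ki^app by Morrison regression.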

For another data set, the target named is T2, TRKA-wt kinase domain (Homo sapiens, UniProt P04629).
T2 construct: TRKA-wt (1 nM, BPS Bio, 40280) kinase domains in buffer; purchased BPS Bio 40280
Nature of the data set: Biochemical kinase assay, TRKA-wt. The conditions noted are these: 2 mM ATP substrate solution, read-out: Ki^app TRKA-wt. In outline:
as §1

In another data set the target is T3, ROS1-wt kinase domain (Homo sapiens, UniProt P08922).
T3 construct: TRKA-wt (1 nM, BPS Bio, 40280) kinase domains in buffer; purchased Carna 08-163
Nature of the data set: Biochemical kinase assay, ROS1-wt. The conditions noted are these: 2 mM ATP substrate solution, read-out: Ki^app ROS1-wt. The essentials: as §1

For the next data set, the target named is T4, ALK-wt kinase domain (Homo sapiens, UniProt Q9UM73).
T4 construct: TRKA-wt (1 nM, BPS Bio, 40280) kinase domains in buffer; purchased Carna 08-518
Nature of the data set: Biochemical kinase assay, ALK-wt. The following applies: 2 mM ATP substrate solution, read-out: Ki^app ALK-wt. In outline:
as §1

For data set [3], the target named is T5, ALK L1196M/G1202R kinase domain (Homo sapiens, UniProt Q9UM73, G1202R/L1196M).
T5 construct: TRKA-wt (1 nM, BPS Bio, 40280) kinase domains in buffer; purchased SignalChem A19-12NG
The data set can be described thus: Biochemical kinase assay, ALK L1196M/G1202R. The conditions noted are these: 2 mM ATP substrate solution, read-out: Ki^app ALK-L1196M-G1202R. In outline:
as §1

With `CC(Oc1cc(Br)cnc1N)c1cc(F)ccc1-c1c(Cn2cnc(C#N)c2)cnn1C` (stereo not shown), the ring closure, yield after HPLC in data set [1] (the molecule shown is the open-chain precursor, Pd(OAc)2/cataCXium A/KOAc, 2-methyl-2-butanol, 30.0 mM, 120.0 °C) came out at 5.9%.
`CC1Oc2cc(cnc2N)-c2c(nn(C)c2C#N)Cc2ccnn2-c2ccc(F)cc21` (stereo not shown) came in with a ring closure, yield after HPLC in data set [1] (from CC(Oc1cc(Br)cnc1N)c1cc(F)ccc1-n1nccc1Cc1cc(C#N)n(C)n1, Pd(OAc)2/cataCXium A/KOAc, 2-methyl-2-butanol, 20.0 mM, 120.0 °C) of 17%.
For the compound `CCc1noc2c1-c1cnc(N)c(n1)O[C@H](C)c1cc(F)ccc1-c1nn(C)cc1C2`, in data set [1] (from CCc1cc(Cc2cn(C)nc2-c2ccc(F)cc2[C@@H](C)Oc2nc(Br)cnc2N)on1, Pd(OAc)2/cataCXium A/KOAc, 2-methyl-2-butanol, 20.0 mM, 120.0 °C, 6.0 h), the ring closure, yield after HPLC stood at 24%.
In data set [1] (from CCn1ncc(Cn2ccnc2-c2ccc(F)cc2C(C)Oc2cc(Br)cnc2N)c1Br, B2pin2/Pd(OAc)2/cataCXium A/NaOH, MeOH/H2O, 57.0 mM, 75.0 °C, 3.0 h), `CCn1ncc2c1-c1cnc(N)c(c1)OC(C)c1cc(F)ccc1-c1nccn1C2` (stereo not shown) came in with a ring closure, yield after HPLC of 10%.
Regarding `CCn1ncc2c1-c1cnc(N)c(c1)O[C@H](C)c1cc(F)ccc1-c1nn(C)cc1C2`, the ring closure, yield after HPLC in data set [1] (from CCn1ncc(Cc2cn(C)nc2-c2ccc(F)cc2[C@@H](C)Oc2cc(Br)cnc2N)c1Br, B2pin2/Pd(OAc)2/cataCXium A/NaOH, MeOH/H2O, 41.0 mM, 80.0 °C, 12.0 h) amounted to 10%.
In turn, `C[C@H]1Oc2cc(cnc2N)-c2c(C#N)cnn2Cc2cn(C)nc2-c2ccc(F)cc21` came in with a ring closure, yield after HPLC in data set [1] (from C[C@@H](Oc1cc(Br)cnc1N)c1cc(F)ccc1-c1nn(C)cc1Cn1cc(C#N)cn1, Pd(OAc)2/cataCXium A/KOAc, 2-methyl-2-butanol, 32.0 mM, 120.0 °C) of 15%.
In the case of `CC(C)Cn1ncc2c1-c1cnc(N)c(c1)O[C@H](C)c1cc(F)ccc1-c1nn(C)cc1C2` [Compound 154], the Ki in data set [2] was below 50 nM; on TRKA-wt kinase domain, above 500 nM; on ROS1-wt kinase domain, below 50 nM; on ALK-wt kinase domain, below 50 nM; in data set [3], below 50 nM.
Consider `CCc1nsc2c1-c1cnc(N)c(c1)O[C@H](C)c1cc(F)ccc1-c1nn(C)cc1C2` [Compound 155], for which the Ki (in data set [2]; on TRKA-wt kinase domain; at ROS1-wt kinase domain; at ALK-wt kinase domain; in data set [3]) was below 50 nM throughout.
Regarding `CCn1nc(C#N)c2c1-c1cnc(N)c(c1)O[C@H](C)c1cc(F)ccc1-c1nn(C)cc1C2` [Compound 156], the Ki in data set [2] is below 50 nM; at TRKA-wt kinase domain, 50 to 500 nM; at ROS1-wt kinase domain, below 50 nM; on ALK-wt kinase domain, below 50 nM; in data set [3], below 50 nM.
As for `CCn1ncc2c1-c1cnc(N)c(c1)O[C@H](C)c1cc(F)ccc1-c1nn(C)c(OC)c1C2` [Compound 157], the Ki (in data set [2]; on TRKA-wt kinase domain; on ROS1-wt kinase domain; at ALK-wt kinase domain; in data set [3]) was below 50 nM each time.
For `CCc1nn(CC)c2c1Cc1cn(C)nc1-c1ccc(F)cc1[C@@H](C)Oc1cc-2cnc1N` [Compound 158], the Ki (in data set [2]; on TRKA-wt kinase domain; at ROS1-wt kinase domain; on ALK-wt kinase domain; in data set [3]) was below 50 nM in each case.
In the case of `C[C@H]1Oc2cc(cnc2N)-c2c(cnn2CC2CC2)Cc2cn(C(F)F)nc2-c2ccc(F)cc21` [Compound 160], the Ki in data set [2] was below 50 nM; on TRKA-wt kinase domain, above 500 nM; on ROS1-wt kinase domain, below 50 nM; on ALK-wt kinase domain it was below 50 nM; in data set [3], below 50 nM.
As for `CCc1noc2c1-c1cnc(N)c(n1)O[C@H](C)c1cc(F)ccc1-c1nn(C)cc1C2` [Compound 162], the Ki (in data set [2]; at TRKA-wt kinase domain; at ROS1-wt kinase domain; on ALK-wt kinase domain; in data set [3]) was below 50 nM throughout.
As for `CCn1ncc2c1-c1cnc(N)c(n1)OC(C)c1cc(F)ccc1-c1nccn1C2` (stereo not shown) [Compound 163], the Ki is below 50 nM in data set [2]; 50 to 500 nM at TRKA-wt kinase domain; below 50 nM at ROS1-wt kinase domain; below 50 nM on ALK-wt kinase domain; below 50 nM in data set [3].
For `CCn1ncc2c1-c1cnc(N)c(n1)OC(C)c1cc(F)ccc1-c1c(cnn1C)C2` (stereo not shown) [Compound 164], the Ki was below 50 nM in data set [2]; above 500 nM on TRKA-wt kinase domain; below 50 nM at ROS1-wt kinase domain; below 50 nM at ALK-wt kinase domain; 50 to 500 nM in data set [3].
`CCn1ncc2c1-c1ccc(F)cc1C(C)Oc1nc(cnc1N)-c1c(cnn1C)C2` (stereo not shown) [Compound 165]: the Ki in data set [2] was 50 to 500 nM; on TRKA-wt kinase domain, 50 to 500 nM; at ROS1-wt kinase domain, below 50 nM; on ALK-wt kinase domain, below 50 nM; in data set [3], 50 to 500 nM.
As for `CCn1ncc2c1-c1cnc(N)c(c1)OC(CO)c1cc(F)ccc1-c1nccn1C2` (stereo not shown) [Compound 166], the Ki was 50 to 500 nM in data set [2]; above 500 nM at TRKA-wt kinase domain; below 50 nM on ROS1-wt kinase domain; below 50 nM on ALK-wt kinase domain; 50 to 500 nM in data set [3].
Turning to `CC1Oc2cc(cnc2N)-c2c(C#N)ncn2Cc2cnn(C)c2-c2ccc(F)cc21` (stereo not shown) [Compound 167], the Ki in data set [2] is 50 to 500 nM; at TRKA-wt kinase domain it was above 500 nM; on ROS1-wt kinase domain, below 50 nM; on ALK-wt kinase domain it was below 50 nM; in data set [3] it was 50 to 500 nM.
Take `CC1Oc2cc(cnc2N)-c2c(n[nH]c2C#N)Cc2cnn(C)c2-c2ccc(F)cc21` (stereo not shown) [Compound 168]: the Ki was below 50 nM in data set [2]; above 500 nM at TRKA-wt kinase domain; below 50 nM at ROS1-wt kinase domain; below 50 nM on ALK-wt kinase domain; below 50 nM in data set [3].
Consider `C[C@H]1Oc2cc(cnc2N)-c2c(nn(C)c2C#N)Cc2ccnn2-c2ccc(F)cc21` [Compound 169], for which the Ki (in data set [2]; on TRKA-wt kinase domain; on ROS1-wt kinase domain; on ALK-wt kinase domain; in data set [3]) was below 50 nM each time.
In the case of `CCc1nn(C)c2c1-c1cnc(N)c(c1)O[C@H](C)c1cc(F)ccc1-c1nn(C)cc1C2` [Compound 171], the Ki (in data set [2]; at TRKA-wt kinase domain; on ROS1-wt kinase domain; at ALK-wt kinase domain; in data set [3]) was below 50 nM each time.
With `C[C@H]1Oc2cc(cnc2N)-c2c(nn(C)c2C2CCC2)Cc2ccnn2-c2ccc(F)cc21` [Compound 174], the Ki in data set [2] was below 50 nM; at TRKA-wt kinase domain, 50 to 500 nM; on ROS1-wt kinase domain, below 50 nM; at ALK-wt kinase domain, below 50 nM; in data set [3] it was below 50 nM.
`CCc1nn(C)c2c1-c1cnc(N)c(c1)OCc1cc(F)ccc1-c1nc(C)sc1C2` [Compound 175]: the Ki in data set [2] was below 50 nM; at TRKA-wt kinase domain, 50 to 500 nM; at ROS1-wt kinase domain it was below 50 nM; on ALK-wt kinase domain it was below 50 nM; in data set [3], below 50 nM.
In the case of `CCc1nn(C)c2c1-c1cnc(N)c(c1)OCc1cc(F)ccc1-c1nn(C)cc1C2` [Compound 176], the Ki was 50 to 500 nM in data set [2]; above 500 nM on TRKA-wt kinase domain; below 50 nM on ROS1-wt kinase domain; below 50 nM at ALK-wt kinase domain; below 50 nM in data set [3].
In the case of `C[C@H]1Oc2cc(cnc2N)-c2c(nn(C)c2CC2CC2)Cc2ccnn2-c2ccc(F)cc21` [Compound 177], the Ki in data set [2] is below 50 nM; on TRKA-wt kinase domain, 50 to 500 nM; at ROS1-wt kinase domain, below 50 nM; on ALK-wt kinase domain it was below 50 nM; in data set [3] it was below 50 nM.
In the case of `C[C@H]1Oc2cc(cnc2N)-c2c(CC3CC3)nn(C)c2Cc2cn(C)nc2-c2ccc(F)cc21` [Compound 178], the Ki in data set [2] was below 50 nM; on TRKA-wt kinase domain it was 50 to 500 nM; at ROS1-wt kinase domain, below 50 nM; on ALK-wt kinase domain, below 50 nM; in data set [3] it was below 50 nM.
For `C[C@H]1Oc2cc(cnc2N)-c2c(nn(C)c2CC2CC2)Cc2cn(C)nc2-c2ccc(F)cc21` [Compound 179], the Ki in data set [2] was below 50 nM; on TRKA-wt kinase domain, 50 to 500 nM; on ROS1-wt kinase domain it was below 50 nM; on ALK-wt kinase domain, below 50 nM; in data set [3], below 50 nM.
Turning to `C[C@H]1Oc2cc(cnc2N)-c2c(CC(F)F)nn(C)c2Cc2cc(C(F)F)nn2-c2ccc(F)cc21` [Compound 180], the Ki was below 50 nM in data set [2]; 50 to 500 nM on TRKA-wt kinase domain; below 50 nM on ROS1-wt kinase domain; below 50 nM on ALK-wt kinase domain; below 50 nM in data set [3].
In the case of `CCn1nc(OC)c2c1-c1cnc(N)c(c1)O[C@H](C)c1cc(F)ccc1-c1nn(C)cc1C2` [Compound 181], the Ki in data set [2] was below 50 nM; on TRKA-wt kinase domain it was 50 to 500 nM; at ROS1-wt kinase domain, below 50 nM; on ALK-wt kinase domain it was below 50 nM; in data set [3], below 50 nM.
